Laboratory results from patent US20260365662A1, “ISOANDROGRAPHOLIDE ANALOGS AND METHOD FOR TREATMENT USING THE SAME” (Enveda Therapeutics, Inc., priority 2023, published 2026).
Non-standard residues stand in square brackets, D forms with d. Residues, ends and D or L forms follow the SMILES beside them. *: point of attachment. Bz = O=C(c1ccccc1)*

How the values were obtained:
mice [1] = test: Bleomycin-induced pulmonary fibrosis model, prophylactic and treatment groups (Example 3); type: in vivo, mouse
Experimental: Prophylactic group (P): At Day 0, prophylactic treatment of mice (P) with Compound 1 or pirfenidone by PO was performed. From Day 0 to Day 20, the prophylactically treated mice (P) were intratracheally instilled with bleomycin. At Day 21, the mice (P) were euthanized.
Treatment group (T): Likewise, from Day 0 to Day 7, naïve mice (T) were intratracheally instilled with bleomycin. At Day 7, the naïve mice were treated with Compound 1. Bleomycin instillation continued to Day 20. At Day 21, the mice (T) were euthanized.
FIGS. 2A-2D and FIGS. 3A-3G illustrate the therapeutic effects of Compound 1 at 10 mpk (P), 30 mpk (P), 100 mpk (P), and 100 mpk (T), as compared to a normal control, treatment-free control (bleomycin), and pirfenidone (comparative) at 100 mpk (P) in a bleomycin-induced model of pulmonary fibrosis.

mice [2] = test: DSS mouse model of colitis; type: in vivo; conditions: 30 mpk, 2% DSS, Day 8
Experimental: From Day-3 to Day 8, mice were treated with Compound 1, fingolimod, or mesalamine. From Day-3 to Day 0, mice were randomized and acclimated to their environment while assessing a disease activity index (DAI). At Day 1, 2% w/w of DSS in water was administered to the mice by PO. From Day 1 to Day 7, DAI continued to be assessed. At Day 8, the mice were euthanized post the final dose of Compound 1, fingolimod, or mesalamine.
FIGS. 8A-8D present the efficacy of Compound 1 at 30 mpk as compared to vehicle control, DSS control, fingolimod at 1 mpk (comparative), and mesalamine at 50 mpk (comparative) in a DSS mouse model of colitis. The graphs show the effect of Compound 1 on disease activity index, stool consistency, rectal bleeding index, and combined histopathology.

mice [3] = test: Imiquimod (IMQ) psoriasis mouse model; type: in vivo; conditions: 30 mpk P.O., BID, 5% imiquimod, Day 0 to Day 7
Experimental: From Day 0 to Day 7, 5% w/w of imiquimod (IMQ) in water was administered to the mice by PO to induce psoriasis. From Day 0 to Day 7, mice were treated with Compound 1, clobetasol, or dexamethasone. At Day 7, the mice were euthanized.
FIGS. 10A and 10B illustrate the effect of Compound 1 at 30 mpk (P.O., BID) as compared to naive control, vehicle control, 0.05% clobetasol, and dexamethasone at 1 mpk (P.O., QD) on psoriasis in a mouse model. The graphs show the changes in ear thickness and Psoriasis Area and Severity Index (PASI) score over time.

mice [4] = test: Chlorhexidine gluconate-induced peritoneal fibrosis model; type: in vivo, mouse; conditions: 10, 30, 100 mpk, 0.1% CG, Day 22
Experimental: From Day 1 to Day 21, 0.1% w/w of chlorhexidine gluconate (CG) in water was administered, every other day, to the mice by PO to induce peritoneal fibrosis. From Day 1 to Day 21, mice were treated with Compound 1 or an inhibitor of TGFβ receptor I (ALK5) (SB525334). At Day 22, the mice were euthanized.
FIGS. 9A and 9B illustrate the effect of Compound 1 at 10, mpk, 30, mpk, and 100 mpk as compared to sham control, 0.1% chlorhexidine gluconate (CG) and vehicle, and an inhibitor of TGFβ receptor I (ALK5) (SB525334) at 30 mpk (comparative), and mesalamine at 50 mpk (comparative) on average peritoneal thickness and α-SMA expression in a mouse model of peritoneal fibrosis.

mice [5] = test: MC903-induced atopic dermatitis mouse model (Example 11); type: in vivo; conditions: 3, 10, 30 mpk PO, BID, MC903, Day 14
Experimental: From Day 1 to Day 14, 2 nmol in 100% ethanol, 50 μl/mouse/back skin (MC903) was administered every other day to mice to induce atopic dermatitis. From Day 1 to Day 14, mice were treated with Compound 1 or clobetasol. At Day 14, the mice were euthanized.
FIGS. 11A-11C illustrate the effects of Compound 1 at 3 mpk, 10 mpk, and 30 mpk (PO, BID) as compared to normal control, vehicle control, and 0.05% clobetasol (topical, QD) (comparative) on atopic dermatitis in a mouse model.

mice [6] = test: Bleomycin-induced pulmonary fibrosis model, prophylactic, 21 days (Example 2); type: in vivo, mouse; conditions: PO, Day 21
Experimental: At Day 0, prophylactic treatment of mice with Compound 3 or pirfenidone by PO was performed. From Day 0 to Day 20, the prophylactically treated mice were intratracheally instilled with bleomycin. At Day 21, the mice were euthanized.
As depicted in FIGS. 1A-1F, a series of bar graphs illustrate the reduction in fibrotic symptoms in a bleomycin-induced pulmonary fibrosis model upon treatment with Compound 3 at 1 mpk, 3 mpk, 10 mpk, and 100 mpk as compared to a normal control, treatment-free control (bleomycin), and pirfenidone (comparative) at 100 mpk. Parameters such as collagen deposition, collagen accumulation, collagen fiber formation, inflammatory cytokine expression, and inflammatory cell infiltration were measured.

mice [7] = test: Bleomycin-induced inflammation and cell counts, 10 days (Example 5); type: in vivo, mouse; conditions: 3, 10, 30 mpk PO, Day 10
Experimental: At Day 0, prophylactic treatment of mice with Compound 3 or pirfenidone by PO was performed. From Day 0 to Day 9, the prophylactically treated mice were intratracheally instilled with bleomycin. At Day 10, the mice were euthanized.
As shown in FIGS. 5A-5G, the impact of Compound 3 at 3 mpk, 10 mpk, and 30 mpk as compared to normal control, treatment-free control (bleomycin), and pirfenidone (comparative) at 100 mpk on various cell counts associated with inflammation was evaluated. The bar graphs compare alveolar macrophage counts, neutrophil counts, lymphocyte counts, inflammation score, eotaxin (BALF), INFγ (lung), and IL-6 (lung).

human neutrophils [8] = test: fMLP induced neutrophil chemotaxis; type: cell-based; conditions: for IC50: fMLP (100 nM), Donor 1
Experimental: (§1) Freshly isolated healthy human neutrophils were isolated and utilized. The neutrophils were treated with IL-8 at 2 nM or fMLP at 100 nM to induced chemotaxis.
(§2) FIGS. 7A and 7B display the percentage of inhibition of 2 nm of IL-8 induced chemotaxis at different compound concentrations of Compound 3 as compared to Navarixin (comparative). FIGS. 7C and 7D display the percentage of inhibition of 100 nm fMLP induced chemotaxis at different compound concentrations of Compound 3 as compared to HCH6-1 (comparative). Table 3 below provides the IC50 values for each stimulus, providing a comparative measure of the compounds' efficacy.

[9] = test system: human precision-cut lung slices; test: Inflammation and fibrosis biomarkers in human precision-cut lung slices; type: cell-based; conditions: 5 μM and 50 uM, hPCLS
Experimental: Cryopreserved human precision-cut lung slices (hPCLS) were prepared and used to analyze biomarkers in inflammatory and fibrotic models. Information of the donors that provided the hPCLS is provided below.
FIGS. 6A-6D illustrate the dose-dependent impact of Compound 3 at 5 μM and 50 uM as compared to vehicle control, nintedanib at 2.5 μM (comparative), and pirfenidone at 2.5 uM (comparative) on biomarkers associated with inflammation and fibrosis in human pulmonary cells.

human neutrophils [10] = test: IL-8 induced neutrophil chemotaxis; type: cell-based; conditions: for IC50: IL-8 (2 nM)
Experimental: as §1, §2

mice [11] = test: LPS-induced acute lung injury model (Example 4); type: in vivo, mouse; conditions: 30 mpk PO, aerosolized LPS 1 mg/mL, 4 hours
Experimental: At time point −1 hour, prophylactic treatment of mice by PO with Compound 3 or dexamethasone was performed. From time point −0.5 hours to 0 hours, neutrophil activation was induced with aerosolized LPS at 1 mg/mL. At timepoint 4 hours, blood, BALF, and lung tissue were harvested.
FIGS. 4A-4G present the effects of Compound 3 at 30 mpk as compared to naive control, treatment-free control (LPS), and dexamethasone (comparative) at 5 mpk on inflammatory cytokines in a lipopolysaccharide (LPS)-induced acute lung injury model. The bar graphs compare the levels of TNF-α, IL-6, IL-36γ, Total cell count (BALF), neutrophils (BALF), neutrophils (blood), and eosinophils (BALF), MIP-2.

[12] = 10, 30, 100 mpk (P) and 100 mpk (T), bleomycin

SMILES: C[C@@]1(C#N)[C@H](O)CC[C@]2(C)[C@@H]1CC[C@@]1(C)O[C@H](C3=CCOC3=O)C[C@@H]21 [Compound 1, (2S,3aR,5aS,6R,7R,9aR,9bS)-7-hydroxy-3a,6,9a-trimethyl-2-(2-oxo-2,5-dihydrofuran-3-yl) dodecahydronaphtho[2,1-b]furan-6-carbonitrile]
- Ashcroft score (mice [1]; [12]): lower the Ashcroft score
- hydroxyproline content (mice [1]; [12]): reduce hydroxyproline content
- inflammatory cell infiltration in lung tissue (mice [1]; [12]): decrease inflammatory cell infiltration
- fibrosis and lung tissue morphology (histology) (mice [1]; H&E staining, 100× magnification, compared to control): reduced fibrosis and improved lung tissue morphology
- symptoms of colitis, such as weight loss and increased disease severity (mice [2]): effectively mitigate the symptoms of colitis
- skin condition (mice [3]): improvements in skin condition
- symptoms (ear thickness, PASI score) (mice [3]): reduction in symptoms
- average peritoneal thickness (mice [4]): reduction
- α-SMA expression (mice [4]): reduction
- dermatitis severity (mice [5]): decrease in dermatitis severity
- skin thickness (mice [5]): decrease

SMILES: C[C@@]12CCC(=O)N[C@@](C)(C#N)[C@H]1CC[C@@]1(C)O[C@H](C3=CCOC3=O)C[C@@H]21 [Compound 3, (2S,3aR,5aS,6R,10aR,10bS)-3a,6,10a-trimethyl-8-oxo-2-(2-oxo-2,5-dihydrofuran-3-yl) dodecahydro-2H-benzofuro[5,4-c]azepine-6-carbonitrile]
- collagen accumulation (mice [6]): notable decrease
- collagen deposition (mice [6]): notable decrease
- collagen fiber formation (mice [6]): notable decrease
- inflammatory cell infiltration (mice [6]): notable decrease
- inflammatory cytokine expression (mice [6]): notable decrease
- inflammation and cell counts (mice [7]): reduction in inflammation and cell counts
- IC50 (human neutrophils [8]; Homo sapiens, Neutrophil): 798 nM
- inhibition of neutrophil chemotaxis (human neutrophils [8]; induced by fMLP at 100 nM): concentration-dependent inhibition
- IL-6 level [9]: corresponding decrease
- IL-8/CXCL8 level [9]: corresponding decrease
- MCP-1/CCL-2 level [9]: corresponding decrease
- IC50 (human neutrophils [10]; Homo sapiens, Neutrophil, All donors): 2060 nM
- IC50 (human neutrophils [10]; Homo sapiens, Neutrophil, Donor 1): 1410 nM
- IC50 (human neutrophils [10]; Homo sapiens, Neutrophil, Donor 2): 3160 nM
- IC50 (human neutrophils [10]; Homo sapiens, Neutrophil, Donor 3): 1620 nM
- inhibition of neutrophil chemotaxis (human neutrophils [10]; induced by IL-8 at 2 nM): concentration-dependent inhibition
- cytokine levels (mice [11]): dose-dependent reduction in cytokine levels

SMILES: COC(=O)[C@@H](Cc1ccccc1)NC(=O)[C@H](Cc1c[nH]c2ccccc12)NC(=O)c1ccccc1 [HCH6-1, reference compound] (Bz-Trp-[dF]-OMe)
- IC50 (human neutrophils [8]): 452 nM

SMILES: CC[C@@H](Nc1c(Nc2cccc(C(=O)N(C)C)c2O)c(=O)c1=O)c1ccc(C)o1 [Navarixin, reference compound]
- IC50 (human neutrophils [10]; All donors): 2360 nM
- IC50 (human neutrophils [10]; Donor 1): 1230 nM
- IC50 (human neutrophils [10]; Donor 2): 2690 nM
- IC50 (human neutrophils [10]; Donor 3): 3160 nM
